“Also recorded” adds a separate entry of the source.
What was measured:
15-LOX = target: T1, 15-LOX (Mus musculus, UniProt P39654); assay: 15-LOX inhibitor in mouse model of lymphedema; assay type: in vivo; settings: in presence of 15-LOX inhibitor
T1 construct: from tissue; host or cells: living C57BL/6J mice (lymphedematous limb)
T1 sequence (P39654 1-663): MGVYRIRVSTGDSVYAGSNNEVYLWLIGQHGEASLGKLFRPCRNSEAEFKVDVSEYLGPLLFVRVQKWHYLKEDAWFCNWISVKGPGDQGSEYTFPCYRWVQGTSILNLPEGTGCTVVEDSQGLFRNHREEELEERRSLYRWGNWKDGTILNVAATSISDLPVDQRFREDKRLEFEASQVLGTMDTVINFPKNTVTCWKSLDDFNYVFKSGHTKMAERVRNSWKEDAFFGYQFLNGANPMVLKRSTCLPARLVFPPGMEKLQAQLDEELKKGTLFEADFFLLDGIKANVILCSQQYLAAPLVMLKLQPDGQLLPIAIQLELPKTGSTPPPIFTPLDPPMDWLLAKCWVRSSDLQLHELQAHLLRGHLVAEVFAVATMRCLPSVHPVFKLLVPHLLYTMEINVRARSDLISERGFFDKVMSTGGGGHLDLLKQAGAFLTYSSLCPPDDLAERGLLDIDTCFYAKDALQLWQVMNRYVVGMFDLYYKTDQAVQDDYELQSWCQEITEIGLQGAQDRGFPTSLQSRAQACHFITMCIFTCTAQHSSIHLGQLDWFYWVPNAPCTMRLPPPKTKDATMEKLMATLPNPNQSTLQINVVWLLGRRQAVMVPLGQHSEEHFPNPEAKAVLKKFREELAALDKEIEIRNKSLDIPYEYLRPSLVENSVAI
Description: Mice were housed in individually ventilated cages in a temperature and light regulated room in a SPF facility and received food and water ad libitum. Female C57BL/6J (6 weeks old) were obtained from Janvier (Le Genest Saint Isle, France). Mouse model of lymphedema was performed as previously described (Morfoisse ATVB 2008).
To understand the molecular mechanisms underlying the inflammatory process in lymphedema, we performed a time course analysis of the adipose tissue in a mouse model of lymphedema (not shown). […] In early stages of LD (2 weeks post surgery), no significant difference in lipid content was observed (data not shown). In contrast, in acquired lymphedema (8 weeks post-surgery), we found similar pattern as those observed in human tissue samples (data not shown). In particular, we observed a decrease in AA-derived lipid mediators generated by 15-LOX (15-HETE) whereas no difference was found in lipids generated by DHA metabolism (17-HDOHE) (data not shown). After eight weeks of LD, we observed that changes in pro-resolvin content was associated with a decrease in 15-LOX mRNA and protein expression (data not shown). Importantly, the downregulation of 15-LOX was also observed in the lymphatic endothelium (data not shown).
To evaluate the role of 15-LOX in LD, we used the PD146176 pharmacological inhibitor. […] As we previously shown that Tcell populations were recruited during LD development, we next performed flow cytometry analysis. We observed in the presence of 15-LOX inhibitor an increase in CD4+ Tcells during LD associated with a decrease in Treg recruitment (data not shown). This was confirmed by a decrease of Tregs (Foxp3 positive cells) immunodetection in lymphedematous tissues (data not shown).

lymphatic monolayer = settings: literature reference 17; cited from earlier work
[1] = tested on: LEC (lymphatic endothelium); assay: effect of 15-HETE on the cultured LEC; assay type: cell-based
Excerpt: To decipher the role of 15-Lox lipid derived mediators, we studied the effect of 15-HETE on the cultured LEC. We identified a direct effect of 15 HETE on the lymphatic endothelium. It promoted Tcells adhesion to the lymphatic monolayer (data not shown), had no effect on LEC proliferation (data not shown), but stimulated their migration (data not shown).

c1ccc2c(c1)SCc1c-2[nH]c2ccccc12 [PD146176]
CD4+ Tcells during LD (15-LOX; flow cytometry): increase
Treg recruitment (15-LOX; flow cytometry): decrease
Tregs (Foxp3 positive cells) immunodetection in lymphedematous tissues (15-LOX): decrease
LD swelling (15-LOX; mouse model of lymphedema): increased
dermal backflow (15-LOX; mouse model of lymphedema): strong dermal backflow
dermal fibrosis (15-LOX; mouse model of lymphedema): associated with dermal fibrosis

CCCCC/C=C\C[C@H](O)/C=C/C=C\C/C=C\CCCC(=O)O [12-HETE]
effect on the lymphatic monolayer (lymphatic monolayer): generates holes in the lymphatic monolayer

CCCCC[C@H](O)/C=C/C=C\C/C=C\C/C=C\CCCC(=O)O [15-HETE, 15-hydroxyeicosatetraenoic acid]
deleterious effect / damages on the lymphatic endothelium ([1]; compared to 12-HETE): no deleterious effect; also recorded: did not cause lymphatic damages
LEC proliferation ([1]; cultured LEC): no effect
